The subject of data set [1] is mouse colon carcinoma (CT-26) cells. Nature of the data set: Cytotoxicity (MTT) in the dark or upon exposure to ultrasound radiation. The conditions noted are these: 4 h incubation, then 44 h, concentrations correspond to the platinum complex. In kind it is cell-based. How it is done: (§1) 6 × 10^3 cells were seeded onto 96-well plates and allowed to adhere overnight. The cells were treated with increasing concentrations of the compound which was diluted in cell media to a total volume of 200 µL. The cells were incubated with the compound for 4 h and after this time the medium refreshed. The cells for the dark group were grown for an additional 44 h at 37 °C. The cells for the ultrasound group were exposed to ultrasound radiation (1.5 W/cm^2, 2 min) with an Intelect Mobile 2 Ultrasound Emitter (DJO Global). The cells for the ultrasound group were grown for an additional 44 h at 37 °C. After this incubation time, the culture medium was substituted with PBS buffer containing 3-(4,5-dimethylthiazol-2-yl)-2,5-diphenyltetrazolium bromide (MTT) with a final concentration of 12 µM. The cells were incubated for 2 h at 37 °C and 10 % CO2 After this time, the DPBS-MTT mixture was removed and the wells filled with 200 µL DMSO. Using a 620 nm reference wavelength, the absorption of the formazan was measured at 550 nm with an Infinite M Nano plus Microplate reader (Tecan).
(§2) In contrast, the nanoparticles induced a cytotoxic effect upon exposure to ultrasound radiation. Table 1 reflects the respective data, which are also visualized in Fig. 3. Table 1: Cytotoxicity (IC50 in µM) of oxaliplatin, NP-Pt-1 and NP-Pt-2 in the dark or upon exposure to ultrasound radiation in mouse colon carcinoma (CT-26) and human breast cancer (MCF-7) cells. The mentioned concentrations correspond to the platinum complex.

In data set [2] the test system is human breast cancer (MCF-7) cells. Described as above. In kind it is cell-based. Particulars: 4 h incubation, then 44 h, concentrations correspond to the platinum complex. How it is done: as §1, §2

The IC50 is the concentration that gives 50% inhibition. The low end stands for greater potency in that assay, the high end for weaker potency in that assay. For `O=C1[O][Pt]2([NH][C@@H]3CCCC[C@H]3[NH]2)[O]C1=O` [Oxaliplatin], the IC50 in data set [1] (CT-26, dark, 2880 min) stood at 20.4 ± 3.1 µM; in data set [1] (CT-26, ultrasound (1.5 W/cm^2, 2 min)), 19.3 ± 3.4 µM; in data set [2] (MCF-7, dark, 2880 min) it was 24.5 ± 4.6 µM; in data set [2] (MCF-7, ultrasound (1.5 W/cm^2, 2 min)), 22.4 ± 4.8 µM.

Values taken from EP4670735A1, “PRODRUG NANOPARTICLE FOR TUMOR-TARGETED ULTRASOUND-[…] THERAPY” (Schleuning, Christian, priority 2024, dated 2025).
